Source: ChEMBL document CHEMBL5331117, “X-Ray Conformation and Structure-Activity Relationships of MA026, a Reversible Tight Junction Opener” (J Med Chem, 2023)

Test system: MDCK-II
Assay: Induction of claudin-1 mediated tight junction opening in MDCK-II cells assessed as increase in FITC-conjugated dextran incubated for 5 hrs relative to control
Type: cell-based
Design: concentration or dose not given beside the values
Conditions: Canis lupus familiaris

**Q.** How did the Activity turn out when `CCCCCCCCCCCCC(=O)N[C@@H](CC(C)C)C(=O)N[C@H](CCC(=O)O)C(=O)N[C@H](CCC(N)=O)C(=O)N[C@@H](C(=O)N[C@H](CC(C)C)C(=O)N[C@@H](CCC(N)=O)C(=O)N[C@@H]1COC(=O)[C@H]([C@@H](C)CC)NC(=O)[C@@H](CCC(N)=O)NC(=O)[C@H](CC(C)C)NC(=O)[C@H](CC(C)C)NC(=O)[C@@H](CCC(N)=O)NC(=O)[C@@H](CC(C)C)NC(=O)[C@@H](C(C)C)NC1=O)C(C)C` was run?
**A.** 33.3%

**Q.** Which Activity does the source give for `CCCCCCC[C@@H](O)CC(=O)N[C@@H](CC(C)C)C(=O)N[C@H](CCC(=O)O)C(=O)N[C@H](CCC(N)=O)C(=O)N[C@H](C)C(=O)N[C@H](CC(C)C)C(=O)N[C@@H](CCC(N)=O)C(=O)N[C@@H]1COC(=O)[C@H]([C@@H](C)CC)NC(=O)[C@@H](CCC(N)=O)NC(=O)[C@H](CC(C)C)NC(=O)[C@H](CC(C)C)NC(=O)[C@@H](CCC(N)=O)NC(=O)[C@@H](CC(C)C)NC(=O)[C@@H](C(C)C)NC1=O` here?
**A.** 14.4%

**Q.** `CCCCCCC[C@@H](O)CC(=O)N[C@@H](CC(C)C)C(=O)N[C@H](CCC(=O)O)C(=O)N[C@H](CCC(N)=O)C(=O)N[C@@H](C(=O)N[C@H](C)C(=O)N[C@@H](CCC(N)=O)C(=O)N[C@@H]1COC(=O)[C@H]([C@@H](C)CC)NC(=O)[C@@H](CCC(N)=O)NC(=O)[C@H](CC(C)C)NC(=O)[C@H](CC(C)C)NC(=O)[C@@H](CCC(N)=O)NC(=O)[C@@H](CC(C)C)NC(=O)[C@@H](C(C)C)NC1=O)C(C)C` was tested. Which Activity did it give?
**A.** 9.2%

**Q.** For `CC[C@H](C)[C@@H]1NC(=O)[C@@H](CCC(N)=O)NC(=O)[C@H](CC(C)C)NC(=O)[C@H](CC(C)C)NC(=O)[C@@H](CCC(N)=O)NC(=O)[C@@H](CC(C)C)NC(=O)[C@@H](C(C)C)NC(=O)[C@H](NC(=O)[C@H](CCC(N)=O)NC(=O)[C@@H](CC(C)C)NC(=O)[C@H](NC(=O)[C@@H](CCC(N)=O)NC(=O)[C@@H](CCC(=O)O)NC(=O)[C@H](CC(C)C)NC(=O)CCCC(C)C)C(C)C)COC1=O`, which Activity is on record?
**A.** 2.6%

**Q.** How did the Activity turn out when `CCCCCCC[C@@H](O)CC(=O)N[C@@H](CC(C)C)C(=O)N[C@H](CCC(=O)O)C(=O)N[C@H](CCC(N)=O)C(=O)N[C@@H](C(=O)N[C@H](CC(C)C)C(=O)N[C@@H](CCC(N)=O)C(=O)N[C@@H]1COC(=O)[C@H]([C@@H](C)CC)NC(=O)[C@@H](CCC(N)=O)NC(=O)[C@H](CC(C)C)NC(=O)[C@H](CC(C)C)NC(=O)[C@@H](CCC(N)=O)NC(=O)[C@@H](CC(C)C)NC(=O)[C@@H](C)NC1=O)C(C)C` was run?
**A.** 22.3%

**Q.** For `CCCCCCCCCC(=O)N[C@@H](CC(C)C)C(=O)N[C@H](CCC(=O)O)C(=O)N[C@H](CCC(N)=O)C(=O)N[C@@H](C(=O)N[C@H](CC(C)C)C(=O)N[C@@H](CCC(N)=O)C(=O)N[C@@H]1COC(=O)[C@H]([C@@H](C)CC)NC(=O)[C@@H](CCC(N)=O)NC(=O)[C@H](CC(C)C)NC(=O)[C@H](CC(C)C)NC(=O)[C@@H](CCC(N)=O)NC(=O)[C@@H](CC(C)C)NC(=O)[C@H](C(C)C)NC1=O)C(C)C`, which Activity is on record?
**A.** 0.4%

**Q.** Which Activity does the source give for `CCCCCCCCCC(=O)N[C@@H](CC(C)C)C(=O)N[C@H](CCC(=O)O)C(=O)N[C@H](CCC(N)=O)C(=O)N[C@@H](C(=O)N[C@H](CC(C)C)C(=O)N[C@@H](CCC(N)=O)C(=O)N[C@@H]1COC(=O)[C@H]([C@@H](C)CC)NC(=O)[C@@H](CCC(N)=O)NC(=O)[C@H](CC(C)C)NC(=O)[C@H](CC(C)C)NC(=O)[C@@H](CCC(N)=O)NC(=O)[C@H](CC(C)C)NC(=O)[C@@H](C(C)C)NC1=O)C(C)C` here?
**A.** 3.8%

**Q.** How did the Activity turn out when `CC[C@H](C)[C@@H]1NC(=O)[C@@H](CCC(N)=O)NC(=O)[C@H](CC(C)C)NC(=O)[C@H](CC(C)C)NC(=O)[C@@H](CCC(N)=O)NC(=O)[C@@H](CC(C)C)NC(=O)[C@@H](C(C)C)NC(=O)[C@H](NC(=O)[C@H](CCC(N)=O)NC(=O)[C@@H](CC(C)C)NC(=O)[C@H](NC(=O)[C@@H](CCC(N)=O)NC(=O)[C@@H](CCC(=O)O)NC(=O)[C@H](CC(C)C)NC(=O)CCO)C(C)C)COC1=O` was run?
**A.** -3%

**Q.** Which Activity does the source give for `CCCCCCCCCC(=O)N[C@@H](CC(C)C)C(=O)N[C@H](CCC(=O)O)C(=O)N[C@H](CCC(N)=O)C(=O)N[C@@H](C(=O)N[C@H](CC(C)C)C(=O)N[C@@H](CCC(N)=O)C(=O)N[C@@H]1COC(=O)[C@@H]([C@@H](C)CC)NC(=O)[C@@H](CCC(N)=O)NC(=O)[C@H](CC(C)C)NC(=O)[C@H](CC(C)C)NC(=O)[C@@H](CCC(N)=O)NC(=O)[C@@H](CC(C)C)NC(=O)[C@@H](C(C)C)NC1=O)C(C)C` here?
**A.** 18.3%

**Q.** `CCCCCCC[C@@H](O)CC(=O)N[C@@H](C)C(=O)N[C@H](CCC(=O)O)C(=O)N[C@H](CCC(N)=O)C(=O)N[C@@H](C(=O)N[C@H](CC(C)C)C(=O)N[C@@H](CCC(N)=O)C(=O)N[C@@H]1COC(=O)[C@H]([C@@H](C)CC)NC(=O)[C@@H](CCC(N)=O)NC(=O)[C@H](CC(C)C)NC(=O)[C@H](CC(C)C)NC(=O)[C@@H](CCC(N)=O)NC(=O)[C@@H](CC(C)C)NC(=O)[C@@H](C(C)C)NC1=O)C(C)C` was tested. Which Activity did it give?
**A.** 31.8%

**Q.** With `CCCCCCC(=O)N[C@@H](CC(C)C)C(=O)N[C@H](CCC(=O)O)C(=O)N[C@H](CCC(N)=O)C(=O)N[C@@H](C(=O)N[C@H](CC(C)C)C(=O)N[C@@H](CCC(N)=O)C(=O)N[C@@H]1COC(=O)[C@H]([C@@H](C)CC)NC(=O)[C@@H](CCC(N)=O)NC(=O)[C@H](CC(C)C)NC(=O)[C@H](CC(C)C)NC(=O)[C@@H](CCC(N)=O)NC(=O)[C@@H](CC(C)C)NC(=O)[C@@H](C(C)C)NC1=O)C(C)C` as the molecule, how does the Activity read?
**A.** -2.8%

**Q.** `CCCCCCCCCC(=O)N[C@@H](CC(C)C)C(=O)N[C@H](CCC(=O)O)C(=O)N[C@H](CCC(N)=O)C(=O)N[C@@H](C(=O)N[C@H](CC(C)C)C(=O)N[C@@H](CCC(N)=O)C(=O)N[C@@H]1COC(=O)[C@H]([C@@H](C)CC)NC(=O)[C@@H](CCC(N)=O)NC(=O)[C@H](CC(C)C)NC(=O)[C@@H](CC(C)C)NC(=O)[C@@H](CCC(N)=O)NC(=O)[C@@H](CC(C)C)NC(=O)[C@@H](C(C)C)NC1=O)C(C)C` was tested. Which Activity did it give?
**A.** -2%

**Q.** For `CCCCCCC[C@@H](O)CC(=O)N[C@@H](CC(C)C)C(=O)N[C@H](CCC(=O)O)C(=O)N[C@H](CCC(N)=O)C(=O)N[C@@H](C(=O)N[C@H](CC(C)C)C(=O)N[C@@H](CCC(N)=O)C(=O)N[C@@H]1COC(=O)[C@H]([C@@H](C)CC)NC(=O)[C@@H](CCC(N)=O)NC(=O)[C@H](CC(C)C)NC(=O)[C@H](C)NC(=O)[C@@H](CCC(N)=O)NC(=O)[C@@H](CC(C)C)NC(=O)[C@@H](C(C)C)NC1=O)C(C)C`, which Activity is on record?
**A.** 12.7%

**Q.** `CCCCCCC[C@@H](O)CC(=O)N[C@@H](CC(C)C)C(=O)N[C@H](CCC(=O)O)C(=O)N[C@H](C)C(=O)N[C@@H](C(=O)N[C@H](CC(C)C)C(=O)N[C@@H](CCC(N)=O)C(=O)N[C@@H]1COC(=O)[C@H]([C@@H](C)CC)NC(=O)[C@@H](CCC(N)=O)NC(=O)[C@H](CC(C)C)NC(=O)[C@H](CC(C)C)NC(=O)[C@@H](CCC(N)=O)NC(=O)[C@@H](CC(C)C)NC(=O)[C@@H](C(C)C)NC1=O)C(C)C` was tested. Which Activity did it give?
**A.** 32%

**Q.** With `CCCCCCCCCC(=O)N[C@@H](CC(C)C)C(=O)N[C@H](CCC(=O)O)C(=O)N[C@H](CCC(N)=O)C(=O)N[C@@H](C(=O)N[C@H](CC(C)C)C(=O)N[C@@H](CCC(N)=O)C(=O)N[C@H]1COC(=O)[C@H]([C@@H](C)CC)NC(=O)[C@@H](CCC(N)=O)NC(=O)[C@H](CC(C)C)NC(=O)[C@H](CC(C)C)NC(=O)[C@@H](CCC(N)=O)NC(=O)[C@@H](CC(C)C)NC(=O)[C@@H](C(C)C)NC1=O)C(C)C` as the molecule, how does the Activity read?
**A.** 2.3%

Same assay, conditions: Canis lupus familiaris, filed as opener

**Q.** Which Activity does the source give for `CCCCCCCCCC(=O)N[C@@H](CC(C)C)C(=O)N[C@H](CCC(=O)O)C(=O)N[C@H](CCC(N)=O)C(=O)N[C@@H](C(=O)N[C@H](CC(C)C)C(=O)N[C@@H](CCC(N)=O)C(=O)N[C@@H]1COC(=O)[C@H]([C@@H](C)CC)NC(=O)[C@H](CCC(N)=O)NC(=O)[C@H](CC(C)C)NC(=O)[C@H](CC(C)C)NC(=O)[C@@H](CCC(N)=O)NC(=O)[C@@H](CC(C)C)NC(=O)[C@@H](C(C)C)NC1=O)C(C)C` here?
**A.** 63.3%

**Q.** For `CCCCCCCCCC(=O)N[C@@H](CC(C)C)C(=O)N[C@H](CCC(=O)O)C(=O)N[C@H](CCC(N)=O)C(=O)N[C@@H](C(=O)N[C@H](CC(C)C)C(=O)N[C@@H](CCC(N)=O)C(=O)N[C@@H]1COC(=O)[C@H]([C@@H](C)CC)NC(=O)[C@@H](CCC(N)=O)NC(=O)[C@H](CC(C)C)NC(=O)[C@H](CC(C)C)NC(=O)[C@@H](CCC(N)=O)NC(=O)[C@@H](CC(C)C)NC(=O)[C@@H](C(C)C)NC1=O)C(C)C`, which Activity is on record?
**A.** 174%

**Q.** With `CCCCCCCCCC(=O)N[C@@H](CC(C)C)C(=O)N[C@H](CCC(=O)O)C(=O)N[C@H](CCC(N)=O)C(=O)N[C@@H](C(=O)N[C@@H](CC(C)C)C(=O)N[C@@H](CCC(N)=O)C(=O)N[C@@H]1COC(=O)[C@H]([C@@H](C)CC)NC(=O)[C@@H](CCC(N)=O)NC(=O)[C@H](CC(C)C)NC(=O)[C@H](CC(C)C)NC(=O)[C@@H](CCC(N)=O)NC(=O)[C@@H](CC(C)C)NC(=O)[C@@H](C(C)C)NC1=O)C(C)C` as the molecule, how does the Activity read?
**A.** 48.8%

**Q.** Which Activity does the source give for `CCCCCCCCCC(=O)N[C@@H](CC(C)C)C(=O)N[C@H](CCC(=O)O)C(=O)N[C@H](CCC(N)=O)C(=O)N[C@@H](C(=O)N[C@H](CC(C)C)C(=O)N[C@@H](CCC(N)=O)C(=O)N[C@@H]1COC(=O)[C@H]([C@@H](C)CC)NC(=O)[C@@H](CCC(N)=O)NC(=O)[C@H](CC(C)C)NC(=O)[C@H](CC(C)C)NC(=O)[C@H](CCC(N)=O)NC(=O)[C@@H](CC(C)C)NC(=O)[C@@H](C(C)C)NC1=O)C(C)C` here?
**A.** 47.6%
